The numbers were not newly measured in US20190233345A1, “AGRICULTURAL SYSTEMS, COMPOSITIONS AND METHODS FOR INCREASING CROP YIELD” (E. I. DU PONT DE NEMOURS AND COMPANY, priority 2016, published 2019), which cites them from elsewhere.

Structures are written as SMILES.

Data set [1] deals with lepidopteran pests of soy (including Army Worm; Spodoptera frugiperda and Velvet Bean Caterpillar (Anticarsia gemmatalis)).
For data set [2], the system named is lepidopteran pests of corn (including Army Worm; Spodoptera frugiperda).

As for `CNC(=O)c1cc(Cl)cc(C)c1NC(=O)c1cc(Br)nn1-c1ncccc1Cl` [Prototype E2Y, chlorantraniliprole], the LD-50 in data set [1] and in data set [2] was 15-20 ppb throughout.
On to `CNC(=O)c1cc(C#N)cc(C)c1NC(=O)c1cc(Br)nn1-c1ncccc1Cl` [HGW, cyantraniliprole], for which the LD-50 in data set [1] and in data set [2] was 50-60 ppb in each case.
